According to publication PMC10786919, “Design-rules for stapled peptides with in vivo activity and their application to Mdm2/X antagonists” (Nature Communications, 2024):
Values after ≈ are worked out from the molar mass of the structure shown. Read-outs that look alike come from different tables or passages of the source. Positions of bridges follow the written chain, without caps; N, C: chain ends. Non-standard residues stand in square brackets, D forms with d. Residues, ends and D or L forms follow the SMILES beside them. Lys(N3) = [N-]=[N+]=NCCCC[C@H](N)C(=O)O; R8 = C=CCCCCCC[C@@](C)(N)C(=O)O; Cba = N[C@@H](CC1CCC1)C(=O)O; R5 = C=CCCC[C@@](C)(N)C(=O)O; S5 = C=CCCC[C@](C)(N)C(=O)O; Ahx = NCCCCCC(=O)O; βAla = NCCC(=O)O

Tests used:
[1] = test system: p53 responsive β-lactamase reporter in HCT116 cells; assay: cells; format: cell-based; details: 0% FBS 4Hr
Protocol: HCT116 cells were stably transfected with a p53 responsive β-lactamase reporter and expanded in McCoy’s 5 A Medium with 10% fetal bovine serum (FBS), Blasticidin, and Penicillin/Streptomycin and then transferred to 1.5 ml freezing vials and stored under liquid nitrogen in growth media containing 5% DMSO. […] The cells were then seeded into a 384-well plate at a density of 8000 cells per well. […] The final working concentration of DMSO was 0.5%. β-lactamase activity was detected using the ToxBLAzer Dual Screen (Invitrogen), as per the manufacturer’s instructions. Measurements were made using the Envision multiplate reader (Perkin–Elmer). […] Measurements were taken a minimum of three times (biological replicates) and values are reported as geometric means of the replicates.

[2] = Lactate dehydrogenase (LDH) release assay; format: cell-based; details: LDH: Cytotoxicity assay: EC50
Procedure, shortened: (§1)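 Membrane damage measured as lactate dehydrogenase release (CytoTox-ONE kit) from p53-responsive β-lactamase reporter HCT116 cells plated at 8000 per well. Final DMSO 0.5%; geometric mean reported from a minimum of three biological replicates.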

HCT116 cells = assay: Lactate dehydrogenase (LDH) release assay; format: cell-based
Procedure, shortened: as §1

[3] = Solubility assay (kinetic solubility, PBS pH 7); format: physicochemical; details: pH 7, aqueous buffer, kinetic from dmso stock, pH 7, PBS; read-out: Solubility
Procedure, shortened: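 Next, measure peak areas of sample and standard. Finally, multiply their ratio by the standard concentration to obtain solubility (µM).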

in vitro = details: Nanoclick permeability assay EC50
Procedure, shortened: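 Azido-peptide permeability was read as loss of NanoBRET signal (donor 450 nm, acceptor 610 nm) after adding NanoBret618-azide at 10 μM final.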

[4] = Experimental LogD (partition coefficient); details: not stated, Partition Coeff LogD
[5] = read-out: p53 reporter assay: EC50
[6] = read-out: p53 reporter assay EC50

## CC(=O)N[C@H](C(=O)N[C@@H](CO)C(=O)N[C@@H](Cc1ccccc1)C(=O)N[C@]1(C)CCCCCCC=CCCC[C@@](C)(C(=O)N[C@@H](CCC(=O)O)C(=O)N[C@@H](CC(N)=O)C(N)=O)NC(=O)[C@H](CC(C)C)NC(=O)[C@H](CC(C)C)NC(=O)[C@H](C)NC(=O)[C@H](Cc2c[nH]c3ccccc23)NC(=O)[C@H](Cc2ccc(O)cc2)NC(=O)[C@H](CCC(=O)O)NC1=O)[C@@H](C)O [MP-086]
[1]; [5]
  EC50: 17.4 µM

## CC(=O)N[C@H](C(=O)N[C@@H](CO)C(=O)N[C@@H](Cc1ccccc1)C(=O)N[C@]1(C)CCCCCC/C=C\CCC[C@@](C)(C(N)=O)NC(=O)[C@H](CC(C)C)NC(=O)[C@H](CC(C)C)NC(=O)[C@H](C)NC(=O)[C@H](Cc2c[nH]c3ccccc23)NC(=O)[C@H](Cc2ccc(O)cc2)NC(=O)[C@H](CCC(=O)O)NC1=O)[C@@H](C)O [MP-2090]
[1]; [5]
  EC50: 5.78 µM

## CC(=O)N[C@H](C(=O)N[C@@H](CO)C(=O)N[C@@H](Cc1ccccc1)C(=O)N[C@]1(C)CCCC=CCCC[C@](C)(C(=O)N[C@@H](CC(C)C)C(=O)N[C@@H](CC(C)C)C(=O)N2CCC[C@H]2C(=O)N[C@@H](CCC(=O)O)C(=O)N[C@@H](CC(N)=O)C(=O)N[C@@H](Cc2ccccc2)C(N)=O)NC(=O)[C@H](Cc2c[nH]c3ccccc23)NC(=O)[C@H](Cc2ccc(O)cc2)NC(=O)[C@H](CCC(=O)O)NC1=O)[C@@H](C)O [MP-078] (Ac-TSF[R5]EYW[R5]LLPENF-NH2; staple 4-8)
[1]; [5]
  EC50: 37.7 µM

## CC(=O)N[C@H](C(=O)N[C@@H](CO)C(=O)N[C@@H](Cc1ccccc1)C(=O)N[C@]1(C)CCCCCCCCCCC[C@@](C)(C(N)=O)NC(=O)[C@H](CC(C)C)NC(=O)[C@H](CC(C)C)NC(=O)[C@H](C)NC(=O)[C@H](Cc2c[nH]c3ccccc23)NC(=O)[C@H](Cc2ccc(O)cc2)NC(=O)[C@H](CCC(=O)O)NC1=O)[C@@H](C)O [MP-089]
[1]; [5]
  EC50: 1.23 µM

## CC(=O)N[C@H](C(=O)N[C@@H](CO)C(=O)N[C@@H](Cc1ccccc1)C(=O)N[C@]1(C)CCCC=CCCC[C@](C)(C(=O)N[C@@H](CC(C)C)C(=O)N[C@@H](CC(C)C)C(=O)N[C@@H](CO)C(=O)N[C@@H](CCC(=O)O)C(=O)N[C@@H](CC(N)=O)C(N)=O)NC(=O)[C@H](Cc2c[nH]c3ccccc23)NC(=O)[C@H](Cc2ccc(O)cc2)NC(=O)[C@H](CCC(=O)O)NC1=O)[C@@H](C)O [MP-2087] (Ac-TSF[R5]EYW[R5]LLSEN-NH2; staple 4-8)
[1]; [5]
  EC50: 24.7 µM

## CC(=O)N[C@H](C(=O)N[C@@H](CO)C(=O)N[C@@H](Cc1ccccc1)C(=O)N[C@]1(C)CCCCCCC=CCCC[C@@](C)(C(=O)N[C@@H](CCC(=O)O)C(=O)N[C@@H](CC(N)=O)C(=O)N[C@@H](C)C(N)=O)NC(=O)[C@H](CC(C)C)NC(=O)[C@H](CC(C)C)NC(=O)[C@H](C)NC(=O)[C@H](Cc2c[nH]c3ccccc23)NC(=O)[C@H](Cc2ccc(O)cc2)NC(=O)[C@H](CCC(=O)O)NC1=O)[C@@H](C)O [MP-088]
[1]; [5]
  EC50: 22.3 µM

## CC(=O)N[C@@H](CCCCN)C(=O)NCCCCCC(=O)N[C@H](C(=O)N[C@@H](CO)C(=O)N[C@@H](C)C(=O)N[C@]1(C)CCCCCCC=CCCC[C@@](C)(C(=O)N[C@@H](CCC(=O)O)C(=O)N[C@@H](CC(N)=O)C(=O)N[C@@H](Cc2ccccc2)C(N)=O)NC(=O)[C@H](CC(C)C)NC(=O)[C@H](CC(C)C)NC(=O)[C@H](C)NC(=O)[C@H](Cc2c[nH]c3ccccc23)NC(=O)[C@H](Cc2ccc(O)cc2)NC(=O)[C@H](CCC(=O)O)NC1=O)[C@@H](C)O [MP-068] (Ac-K[Ahx]TSA[R8]EYWALL[S5]ENF-NH2; staple 6-13)
[1]; [6]
  EC50: > 50 µM

## CC(=O)N[C@@H](CCCCN)C(=O)N[C@@H](CCCCN)C(=O)N[C@@H](CCCCN)C(=O)NCCCCCC(=O)N[C@H](C(=O)N[C@@H](CO)C(=O)N[C@@H](CC(C)C)C(=O)N[C@]1(C)CCCCCCC=CCCC[C@@](C)(C(=O)N[C@@H](CCC(=O)O)C(=O)N[C@@H](CC(N)=O)C(=O)N[C@@H](Cc2ccccc2)C(N)=O)NC(=O)[C@H](Cc2c[nH]c3ccccc23)NC(=O)[C@H](CC(C)C)NC(=O)[C@H](C)NC(=O)[C@H](Cc2ccccc2)NC(=O)[C@H](Cc2ccc(O)cc2)NC(=O)[C@H](CCC(=O)O)NC1=O)[C@@H](C)O [MP-075] (Ac-KKK[Ahx]TSL[R8]EYFALW[S5]ENF-NH2; staple 8-15)
[1]; [5]
  EC50: > 50 µM

## CC(=O)N[C@H](C(=O)N[C@@H](CO)C(=O)N[C@@H](Cc1ccccc1)C(=O)N[C@]1(C)CCCCCCC=CCCC[C@@](C)(C(=O)N[C@H](CCC(=O)O)C(=O)N[C@@H](CC(N)=O)C(=O)N[C@@H](Cc2ccccc2)C(N)=O)NC(=O)[C@H](CC(C)C)NC(=O)[C@H](CC(C)C)NC(=O)[C@H](C)NC(=O)[C@H](Cc2c[nH]c3ccccc23)NC(=O)[C@H](Cc2ccc(O)cc2)NC(=O)[C@H](CCC(=O)O)NC1=O)[C@@H](C)O [MP-092]
[1]; [5]
  EC50: 6.33 µM

## CC(=O)N[C@@H](CCCCN)C(=O)N[C@@H](CCCCN)C(=O)NCCCCCC(=O)N[C@H](C(=O)N[C@@H](CO)C(=O)N[C@@H](Cc1ccccc1)C(=O)N[C@]1(C)CCCCCC/C=C\CCC[C@@](C)(C(=O)N[C@@H](CCC(=O)O)C(=O)N[C@@H](CC(N)=O)C(=O)N[C@@H](Cc2ccccc2)C(N)=O)NC(=O)[C@H](CC(C)C)NC(=O)[C@H](CC(C)C)NC(=O)[C@H](C)NC(=O)[C@H](Cc2c[nH]c3ccccc23)NC(=O)[C@H](Cc2ccc(O)cc2)NC(=O)[C@H](CCC(=O)O)NC1=O)[C@@H](C)O [MP-095] (Ac-KK[Ahx]TSF[R8]EYWALL[S5]ENF-NH2; staple (Z) 7-14)
[1]; [5]
  EC50: 5.83 µM

## CC(=O)N[C@H](C(=O)N[C@@H](CO)C(=O)N[C@@H](Cc1ccccc1)C(=O)N[C@]1(C)CCCC=CCCC[C@](C)(C(=O)N[C@@H](CC(C)C)C(=O)N[C@@H](CC(C)C)C(=O)N2CCC[C@H]2C(=O)N[C@@H](CCC(=O)O)C(=O)N[C@@H](CC(N)=O)C(=O)N[C@@H](Cc2ccc(O)cc2)C(N)=O)NC(=O)[C@H](Cc2c[nH]c3ccccc23)NC(=O)[C@H](Cc2ccc(O)cc2)NC(=O)[C@H](CCC(=O)O)NC1=O)[C@@H](C)O [MP-2082] (Ac-TSF[R5]EYW[R5]LLPENY-NH2; staple 4-8)
[1]; [5]
  EC50: 43 µM

## CC(=O)N[C@@H](CCCCN)C(=O)N[C@@H](CCCCN)C(=O)NCCCCCC(=O)N[C@H](C(=O)N[C@@H](CO)C(=O)N[C@@H](C)C(=O)N[C@]1(C)CCCCCCC=CCCC[C@@](C)(C(=O)N[C@@H](CCC(=O)O)C(=O)N[C@@H](CC(N)=O)C(=O)N[C@@H](Cc2ccccc2)C(N)=O)NC(=O)[C@H](CC(C)C)NC(=O)[C@H](CC(C)C)NC(=O)[C@H](C)NC(=O)[C@H](Cc2c[nH]c3ccccc23)NC(=O)[C@H](Cc2ccc(O)cc2)NC(=O)[C@H](CCC(=O)O)NC1=O)[C@@H](C)O [MP-069] (Ac-KK[Ahx]TSA[R8]EYWALL[S5]ENF-NH2; staple 7-14)
[1]; [6]
  EC50: > 50 µM

## CC(=O)N[C@H](C(=O)N[C@@H](CO)C(=O)N[C@@H](C)C(=O)N[C@]1(C)CCCCCCC=CCCC[C@@](C)(C(N)=O)NC(=O)[C@H](CC(C)C)NC(=O)[C@H](CC(C)C)NC(=O)[C@H](C)NC(=O)[C@H](Cc2c[nH]c3ccccc23)NC(=O)[C@H](Cc2ccc(O)cc2)NC(=O)[C@H](CCC(=O)O)NC1=O)[C@@H](C)O [MP-067] (Ac-TSA[R8]EYWALL[S5]-NH2; staple 4-11)
[1]; [6]
  EC50: > 50 µM

## CC(=O)N[C@H](C(=O)N[C@@H](CO)C(=O)N[C@@H](Cc1ccccc1)C(=O)N[C@]1(C)CCCCCCC=CCCC[C@@](C)(C(=O)N[C@@H](CCC(=O)O)C(=O)N[C@@H](CC(N)=O)C(=O)N[C@H](Cc2ccccc2)C(N)=O)NC(=O)[C@H](CC(C)C)NC(=O)[C@H](CC(C)C)NC(=O)[C@H](C)NC(=O)[C@H](Cc2c[nH]c3ccccc23)NC(=O)[C@H](Cc2ccc(O)cc2)NC(=O)[C@H](CCC(=O)O)NC1=O)[C@@H](C)O [MP-091]
[1]; [5]
  EC50: 5.28 µM

## CC(C)C[C@@H]1NC(=O)[C@H](C)NC(=O)[C@H](Cc2c[nH]c3ccccc23)NC(=O)[C@H](Cc2ccc(O)cc2)NC(=O)[C@H](CCC(=O)O)NC(=O)[C@](C)(NC(=O)[C@H](Cc2ccccc2)NC(=O)[C@H](CO)NC(=O)[C@@H](NC(=O)[C@H](CO)NC(=O)CNC(=O)[C@H](CO)NC(=O)[C@H](CCCCN=[N+]=[N-])NC(=O)[C@H](CCC(=O)O)NC(=O)[C@@H](N)CCC(=O)O)[C@@H](C)O)CCCCCCC=CCCC[C@@](C)(C(N)=O)NC(=O)[C@H](CC(C)C)NC1=O [MP-0181] (H-EE[Lys(N3)]SGSTSF[R8]EYWALL[S5]-NH2; staple 10-17)
[2]
  EC50: > 50.6 µM
HCT116 cells
  LDH: Cytotoxicity assay: % Effect: 9.12%
[3]
  solubility kinetic: 106 µM (≈ 219 µg/mL)
In vitro
  cell entry EC50: 2.07 µM
[4]
  logD: 2.05

## CC(C)C[C@H](NC(=O)CCNC(=O)[C@@H](N)CCCCN=[N+]=[N-])C(=O)N[C@H](C(=O)N[C@@H](Cc1ccccc1)C(=O)N[C@]1(C)CCCCCCC=CCCC[C@@](C)(C(N)=O)NC(=O)[C@H](CC2CCC2)NC(=O)[C@H](CC(C)C)NC(=O)[C@H](CCC(N)=O)NC(=O)[C@H](Cc2c[nH]c3ccccc23)NC(=O)[C@H](Cc2ccc(O)cc2)NC(=O)[C@H](CCC(=O)O)NC1=O)[C@@H](C)O [MP-329] (H-[Lys(N3)][βAla]LTF[R8]EYWQL[Cba][S5]-NH2; staple 6-13)
[2]
  EC50: > 50.7 µM
HCT116 cells
  EC50: 50.5 µM
[3]
  solubility kinetic: 5 µM (≈ 8.71 µg/mL)
In vitro
  cell entry EC50: 2.69 µM
[4]
  logD: 2.71
